The text below walks through data of patent US20260317320A1, “C5AR1 ANTAGONISTS AND USES THEREOF” (Vanqua Bio, Inc., priority 2022, published 2026).

In experiment [1] the target is T1, complement C5a receptor 1 (C5aR1) (Homo sapiens, UniProt P21730).
T1 construct: β-galactosidase fragment (PathHunter enzyme complementation); host or cells: CHO-K1 (PathHunter CHO-K1 C5aR1 β-arrestin cell line)
T1 sequence (P21730 1-350): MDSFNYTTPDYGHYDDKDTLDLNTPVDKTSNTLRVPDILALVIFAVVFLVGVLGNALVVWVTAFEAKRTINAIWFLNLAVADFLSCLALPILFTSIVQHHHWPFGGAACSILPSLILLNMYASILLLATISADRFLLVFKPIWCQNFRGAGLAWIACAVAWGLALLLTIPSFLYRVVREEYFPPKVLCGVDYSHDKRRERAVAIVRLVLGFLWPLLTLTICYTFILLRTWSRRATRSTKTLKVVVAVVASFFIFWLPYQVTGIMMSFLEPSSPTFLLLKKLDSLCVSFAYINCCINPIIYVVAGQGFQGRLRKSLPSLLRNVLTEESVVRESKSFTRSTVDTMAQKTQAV
Briefly: β-arrestin recruitment via C5aR1 activation in live CHO-K1 cells (PathHunter), antagonist mode. As to conditions: antagonist mode; recombinant hC5a (EC90) as competing natural agonist; live CHO-K1 cells; read-out: [Antagonist] B-arrestin2 recruitment: Average IC50; call rule not given here. The class given is cell-based. Put shortly: (§1)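 β-arrestin recruitment to C5aR1 in CHO-K1 cells is detected by enzyme-fragment complementation. Antagonism is measured against recombinant hC5a at its EC90; agonism is measured with compound alone. Potencies are grouped into IC50 categories.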

For experiment [2], the target named is T1, complement C5a receptor 1 (C5aR1). Briefly: β-arrestin recruitment via C5aR1 activation in live CHO-K1 cells (PathHunter), agonist mode. The format is cell-based. The essentials: as §1
For orientation: Recruitment of arrestin is a read-out of receptor activation apart from second messengers.

Where two headings read alike, the source gives them in different places.

As to `COc1cccnc1Cn1c(=O)c([C@H]2CC[C@H](c3c(C)cccc3F)CC2)cc2ncc(C)nc21` [compound 199, 7-((1r,4r)-4-(2-Fluoro-6-methylphenyl)cyclohexyl)-5-((3-methoxypyridin-2-yl)methyl)-3-methylpyrido[2,3-b]pyrazin-6(5H)-one], the IC50 (in general, the concentration at which inhibition is half-maximal) in experiment [1] is below 500 nM. Moreover, in experiment [2], the “[Agonist] B-arrestin2 recruitment: Average EC50 (nM)” value (“[Agonist] B-arrestin2 recruitment” below) is “Non-Active”.
Turning to `CCc1cnc2cc([C@H]3CC[C@H](c4c(C)cccc4F)CC3)c(=O)n(Cc3ncccc3C(F)(F)F)c2n1` [compound 201, 3-Ethyl-7-((1r,4r)-4-(2-fluoro-6-methylphenyl)cyclohexyl)-5-((3-(trifluoromethyl)pyridin-2-yl)methyl)pyrido[2,3-b]pyrazin-6(5H)-one], in experiment [1], the IC50 is below 500 nM. For the same compound, the “[Agonist] B-arrestin2 recruitment” value in experiment [2] (at 10 μM) is reported as “Non-Active at 10 μM”.
The corresponding values for `Cc1cnc2cc([C@H]3CC[C@H](c4ccccc4C(F)(F)F)CC3)c(=O)n(Cc3ncccc3C(F)(F)F)c2n1` [compound 202, 3-Methyl-7-((1r,4r)-4-(2-(trifluoromethyl)phenyl)cyclohexyl)-5-((3-(trifluoromethyl)pyridin-2-yl)methyl)pyrido[2,3-b]pyrazin-6(5H)-one] are below 500 nM and “Non-Active at 10 μM”.
Taken in the same sequence, the figures for `CCc1cnc2cc([C@H]3CC[C@H](c4c(C)cccc4F)CC3)c(=O)n(Cc3ncccc3OC(F)(F)F)c2n1` [compound 204, 3-Ethyl-7-((1r,4r)-4-(2-fluoro-6-methylphenyl)cyclohexyl)-5-((3-(trifluoromethoxy)pyridin-2-yl)methyl)pyrido[2,3-b]pyrazin-6(5H)-one] were below 500 nM and “Non-Active at 10 μM”.
As to `Cc1ccc2cc([C@H]3CC[C@H](c4c(C)cccc4F)CC3)c(=O)n(Cc3nccnc3C)c2n1` [compound 206, 3-((1r,4r)-4-(2-fluoro-6-methylphenyl)cyclohexyl)-7-methyl-1-((3-methylpyrazin-2-yl)methyl)-1,8-naphthyridin-2(1H)-one], the IC50 in experiment [1] lay in the range of 500 to 5000 nM. Moreover, in experiment [2] (at 10 μM), the “[Agonist] B-arrestin2 recruitment” value was “Non-Active at 10 μM”.
On to `Cc1cnc2cc([C@H]3CC[C@H](c4c(F)ccc5c4cnn5C)CC3)c(=O)n(Cc3ncccc3C(F)(F)F)c2n1` [compound 207, 7-((1r,4r)-4-(5-Fluoro-1-methyl-1H-indazol-4-yl)cyclohexyl)-3-methyl-5-((3-(trifluoromethyl)pyridin-2-yl)methyl)pyrido[2,3-b]pyrazin-6(5H)-one], for which the IC50 in experiment [1] fell in the range of 5000 to 100000 nM. The “[Agonist] B-arrestin2 recruitment” value in experiment [2] (at 10 μM) is “Non-Active at 10 μM”.
Turning to `Cc1cnc2cc([C@H]3CC[C@H](c4c(F)cccc4F)CC3)c(=O)n(Cc3ncccc3OC(F)(F)F)c2n1` [compound 209, 7-((1r,4r)-4-(2,6-Difluorophenyl)cyclohexyl)-3-methyl-5-((3-(trifluoromethoxy)pyridin-2-yl)methyl)pyrido[2,3-b]pyrazin-6(5H)-one], the IC50 in experiment [1] was below 500 nM. For the same compound, in experiment [2] (at 10 μM), the “[Agonist] B-arrestin2 recruitment” value is listed as “Non-Active at 10 μM”.
As to `Cc1ccc2cc([C@H]3CC[C@H](c4c(C)cccc4F)CC3)c(=O)n(Cc3nccnc3C(F)F)c2n1` [compound 210, 1-((3-(Difluoromethyl)pyrazin-2-yl)methyl)-3-((1r,4r)-4-(2-fluoro-6-methylphenyl)cyclohexyl)-7-methyl-1,8-naphthyridin-2(1H)-one], the half-inhibitory concentration (IC50) in experiment [1] is below 500 nM. The “[Agonist] B-arrestin2 recruitment” value in experiment [2] (at 10 μM) is “Non-Active at 10 μM”.
On to `CCc1cnc2c(cc([C@H]3CC[C@H](c4c(C)cccc4F)CC3)c(=O)n2Cc2ncccc2C(F)(F)F)n1` [compound 211, 2-Ethyl-7-((1r,4r)-4-(2-fluoro-6-methylphenyl)cyclohexyl)-5-((3-(trifluoromethyl)pyridin-2-yl)methyl)pyrido[2,3-b]pyrazin-6(5H)-one], for which the IC50 in experiment [1] is below 500 nM. Moreover, in experiment [2] (at 10 μM), the “[Agonist] B-arrestin2 recruitment” value is on record as “Non-Active at 10 μM”.
As for `Cc1cnc2cc([C@H]3CC[C@H](c4c(C)cccc4F)CC3)c(=O)n(Cc3ncccc3OC(F)F)c2n1` [compound 212, 5-((3-(Difluoromethoxy)pyridin-2-yl)methyl)-7-((1r,4r)-4-(2-fluoro-6-methylphenyl)cyclohexyl)-3-methylpyrido[2,3-b]pyrazin-6(5H)-one], the IC50 in experiment [1] was below 500 nM. Besides, in experiment [2] (at 10 μM), the “[Agonist] B-arrestin2 recruitment” value is recorded as “Non-Active at 10 μM”.
Take `Cc1cnc2cc([C@H]3CC[C@H](c4c(C)cccc4F)CC3)c(=O)n(Cc3ncccc3OCC(F)(F)F)c2n1` [compound 213, 7-((1r,4r)-4-(2-Fluoro-6-methylphenyl)cyclohexyl)-3-methyl-5-((3-(2,2,2-trifluoroethoxy)pyridin-2-yl)methyl)pyrido[2,3-b]pyrazin-6(5H)-one]: the IC50 in experiment [1] was below 500 nM. Moreover, the “[Agonist] B-arrestin2 recruitment” value in experiment [2] (at 10 μM) is “Non-Active at 10 μM”.
For `COc1cccnc1Cn1c(=O)c([C@H]2CC[C@H](c3c(C)cccc3F)CC2)cc2nc(C(F)(F)F)cnc21` [compound 214, 7-((1r,4r)-4-(2-Fluoro-6-methylphenyl)cyclohexyl)-5-((3-methoxypyridin-2-yl)methyl)-2-(trifluoromethyl)pyrido[2,3-b]pyrazin-6(5H)-one], the IC50 in experiment [1] lay within 5000 to 100000 nM. Further, the “[Agonist] B-arrestin2 recruitment” value in experiment [2] (at 10 μM) is listed as “Non-Active at 10 μM”.
`CCc1cnc2c(cc([C@H]3CC[C@H](c4c(C)cccc4F)CC3)c(=O)n2Cc2ncccc2OC(F)(F)F)n1` [compound 215, 2-Ethyl-7-((1r,4r)-4-(2-fluoro-6-methylphenyl)cyclohexyl)-5-((3-(trifluoromethoxy)pyridin-2-yl)methyl)pyrido[2,3-b]pyrazin-6(5H)-one]: the IC50 in experiment [1] was below 500 nM. For the same compound, the “[Agonist] B-arrestin2 recruitment” value in experiment [2] (at 10 μM) was “Non-Active at 10 μM”.
With `Cc1cnc2cc([C@H]3CC[C@H](c4c(F)cccc4C(F)(F)F)CC3)c(=O)n(Cc3ncccc3OC(F)(F)F)c2n1` [compound 216, 7-((1r,4r)-4-(2-Fluoro-6-(trifluoromethyl)phenyl)cyclohexyl)-3-methyl-5-((3-(trifluoromethoxy)pyridin-2-yl)methyl)pyrido[2,3-b]pyrazin-6(5H)-one], the 50% inhibitory concentration (IC50) in experiment [1] lay in the range of 500 to 5000 nM. Moreover, the “[Agonist] B-arrestin2 recruitment” value in experiment [2] (at 10 μM) was “Non-Active at 10 μM”.
On to `Cc1cnc2cc([C@H]3CC[C@H](c4c(F)ccc5cnn(C)c54)CC3)c(=O)n(Cc3ncccc3C(F)(F)F)c2n1` [compound 217, 3-Methyl-7-[(1r,4r)-4-(6-fluoro-1-methylindazol-7-yl)cyclohexyl]-5-{[3-(trifluoromethyl)pyridin-2-yl]methyl}pyrido[2,3-b]pyrazin-6-one], for which the IC50 in experiment [1] is 5000 to 100000 nM. The “[Agonist] B-arrestin2 recruitment” value in experiment [2] (at 10 μM) is reported as “Non-Active at 10 μM”.
For `Cc1cnc2cc([C@H]3CC[C@H](c4c(C)cccc4F)CC3)c(=O)n(Cc3ncccc3CC(F)(F)F)c2n1` [compound 219, 7-((1r,4r)-4-(2-Fluoro-6-methylphenyl)cyclohexyl)-3-methyl-5-((3-(2,2,2-trifluoroethyl)pyridin-2-yl)methyl) pyrido[2,3-b]pyrazin-6(5H)-one], the IC50 in experiment [1] is below 500 nM. In addition, the “[Agonist] B-arrestin2 recruitment” value in experiment [2] (at 10 μM) is “Non-Active at 10 μM”.
The corresponding values for `Cc1cnc2cc([C@H]3CC[C@H](c4c(C)cccc4F)CC3)c(=O)n(Cc3ncccc3C3CC3)c2n1` [compound 220, 5-((3-Cyclopropylpyridin-2-yl)methyl)-7-((1r,4r)-4-(2-fluoro-6-methylphenyl)cyclohexyl)-3-methylpyrido[2,3-b]pyrazin-6(5H)-one] are below 500 nM and “Non-Active at 10 μM”.
Taken in the same sequence, the figures for `Cc1cnc2cc([C@H]3CC[C@H](c4c(C)cccc4F)CC3)c(=O)n(Cc3nccnc3C3CC3)c2n1` [compound 221, 5-((3-Cyclopropylpyrazin-2-yl)methyl)-7-((1r,4r)-4-(2-fluoro-6-methylphenyl)cyclohexyl)-3-methylpyrido[2,3-b]pyrazin-6(5H)-one] were below 500 nM and “Non-Active at 10 μM”.
For `Cc1cnc2cc([C@H]3CC[C@H](c4c(F)cccc4F)CC3)c(=O)n(Cc3ncccc3C(F)(F)F)c2n1` [compound 222, 7-((1r,4r)-4-(2,6-Difluorophenyl)cyclohexyl)-3-methyl-5-((3-(trifluoromethyl)pyridin-2-yl)methyl)pyrido[2,3-b]pyrazin-6(5H)-one], the IC50 in experiment [1] is below 500 nM. Also, in experiment [2] (at 10 μM), the “[Agonist] B-arrestin2 recruitment” value is recorded as “Non-Active at 10 μM”.
In the case of `Cc1ccc2cc([C@H]3CC[C@H](c4c(F)cccc4F)CC3)c(=O)n(Cc3ncccc3C(F)(F)F)c2n1` [compound 223, 3-((1r,4r)-4-(2,6-Difluorophenyl)cyclohexyl)-7-methyl-1-((3-(trifluoromethyl)pyridin-2-yl)methyl)-1,8-naphthyridin-2(1H)-one], in experiment [1], the IC50 was below 500 nM. Also, the “[Agonist] B-arrestin2 recruitment” value in experiment [2] (at 10 μM) is “Non-Active at 10 μM”.
In the case of `Cc1cnc2cc([C@H]3CC[C@H](c4c(C)cccc4F)CC3)c(=O)n(Cc3ccccc3C(F)(F)F)c2n1` [compound 224, 7-((1r,4r)-4-(2-Fluoro-6-methylphenyl)cyclohexyl)-3-methyl-5-(2-(trifluoromethyl)benzyl)pyrido[2,3-b]pyrazin-6(5H)-one], the IC50 in experiment [1] is below 500 nM. Further, in experiment [2] (at 10 μM), the “[Agonist] B-arrestin2 recruitment” value is recorded as “Non-Active at 10 μM”.
